Values quoted from earlier work, collected in patent US20090093542A1, “Copper antagonist compositions” (priority 2007, published 2009).
Blank lines part the entries; values can stand above or below the compound they belong to.

Assays:
[1] = solution of the free base itself
[2] = long-term use in Wilson's disease

- solubility in alcohol (alcohol): slightly soluble
- solubility in ether, acetone, benzene, and carbon tetrachloride (ether, acetone, benzene, carbon tetrachloride): insoluble
- solubility in water (water): freely soluble
Compound: CC(C)(S)[C@@H](N)C(=O)O [Penicillamine, 3-mercapto-D-valine]

- pH of a solution [1]: 14
Compound: NCCNCCNCCN [trientine, triethylenetetramine]

Compound: CC(=O)[O-].CC(=O)[O-].[Zn+2] [Zinc acetate]
- long-term or major side effects in patients [2]: has not shown any long-term or major side effects
